{
  "source": "patent US20170312296A1",
  "about": "“AGENTS FOR KILLING HIV-1-INFECTED CELLS AND APPLICATION THEREOF” (KAGOSHIMA UNIVERSITY, priority 2015, published 2017)",
  "key": {"[1]": {"tested_on": "HIV-1-infected human peripheral blood mononuclear cells", "assay": "Cell viability (dye method) in HIV-1 chronically infected cell model derived from human peripheral blood mononuclear cells", "conditions": "for effect on the cell death-inducing effect specific for HIV-1-infected cells due to entinostat: Example 2: combination with entinostat 0.5 μM after protease inhibitor pretreatment; for cell death-inducing effect specific for HIV-1-infected cells: Example 4: treatment after 11 days culture", "procedure": "Healthy donor-derived peripheral blood mononuclear cells were infected with HIV-1 strain IIIB in vitro to prepare an HIV-1 chronically infected cell model derived from human peripheral blood mononuclear cells, and a combination effect of an HIV-1 protease inhibitor (NFV or SQV) and an HDAC inhibitor (entinostat or vorinostat) was examined.\nAfter HIV-1 infection or pseudo-infection (=mock-infection), the cells were cultured for 7 days and treated with various concentrations of each HIV-1 protease inhibitor for 3 days. For 3 days thereafter, treatment was carried out using combinations of each HIV-1 protease inhibitor having the same concentration and each HDAC inhibitor. The cell viability in each sample was measured by a dye method, and the amount of HIV-1 produced, by an ELISA method (HIV-1 p24 Antigen ELISA). […]"}, "HIV-1 strain IIIB [2]": {"tested_on": "HIV-1 strain IIIB", "assay": "Amount of HIV-1 produced (HIV-1 p24 Antigen ELISA) in HIV-1-infected human peripheral blood mononuclear cells", "type": "cell-based"}, "HIV-1 strain IIIB [3]": {"tested_on": "HIV-1 strain IIIB", "assay": "Amount of HIV-1 produced (HIV-1 p24 Antigen ELISA) in HIV-1-infected CD4T", "type": "cell-based", "excerpt": "(§1) In this Example, it was examined whether combined use with an HIV-1 reverse transcriptase inhibitor provided the same effect, by conducting a combination experiment with entinostat according to the experimental procedure shown in FIG. 13 using tenofovir (TFV) as one of the clinically most used HIV-1 reverse transcriptase inhibitors.\nas §1, with “Then,” for “In this Example,”, “integrase” for “reverse transcriptase”, “effect” for “effect,”, “15” for “13”, “dolutegravir (DTG)” for “tenofovir (TFV)”"}, "Cleaved caspase-3": {"tested_on": "Cleaved caspase-3", "assay": "Western blot of cleaved caspase-3 in CD4T", "type": "cell-based, human", "conditions": "entinostat 0.5 μM", "procedure": "(§2) The extracted protein was analyzed by a Western blot method.\n(§3) The expression of each of Cleaved caspase-3 and Cleaved PARP was corrected with the expression of β-tublin as an internal control to make a graph."}, "[4]": {"tested_on": "HIV-1 latently infected cells (reservoir cells)", "conditions": "literature report (Johnstone 2002); cited from earlier work"}, "Cleaved PARP": {"tested_on": "Cleaved PARP", "assay": "Western blot of cleaved PARP in CD4T", "type": "cell-based, human", "procedure": "as §2, §3"}, "[5]": {"tested_on": "HIV-1-infected CD4-positive T lymphocytes (CD4T)", "assay": "Cell viability (dye method) in CD4T-derived HIV-1 chronically infected cell model", "type": "cell-based, human", "conditions": "for cell death-inducing effect specific for HIV-1-infected cells in CD4T: Example 5: treated 4 days from day 3 or from day 7 after infection; for effect on the cell death-inducing effect specific for HIV-1-infected cells due to entinostat: Example 6, CD4T, combination with entinostat", "procedure": "In this Example, the action of various HDAC inhibitors on HIV-1-infected CD4T was analyzed using CD4T purified from human peripheral blood mononuclear cells.\nas §1\nas §1, with “Then,” for “In this Example,”, “integrase” for “reverse transcriptase”, “effect” for “effect,”, “15” for “13”, “dolutegravir (DTG)” for “tenofovir (TFV)”"}, "[6]": {"tested_on": "mock-infected human peripheral blood mononuclear cells", "assay": "Cell viability (dye method) of mock-infected human peripheral blood mononuclear cells", "type": "cell-based", "conditions": "Example 4", "procedure": "After HIV-1 infection or pseudo-infection (=mock-infection), the cells were cultured for 7 days and treated with various concentrations of each HIV-1 protease inhibitor for 3 days. For 3 days thereafter, treatment was carried out using combinations of each HIV-1 protease inhibitor having the same concentration and each HDAC inhibitor. The cell viability in each sample was measured by a dye method, and the amount of HIV-1 produced, by an ELISA method (HIV-1 p24 Antigen ELISA).\nAfter HIV-1 infection or pseudo-infection (=mock-infection), culture was performed for 11 days, and for 3 days from day 12, the combined administration of each HIV-1 protease inhibitor having various concentrations and the HDAC inhibitor was carried out. The cell viability in each sample was measured by a dye method, and the amount of HIV-1 produced, by an ELISA method (HIV-1 p24 Antigen ELISA).\nAfter HIV-1 infection or pseudo-infection (=mock-infection), the cells were cultured for 11 days and treated with various concentrations of each HDAC inhibitor. The cell viability in each sample was measured by a dye method, and the amount of HIV-1 produced, by an ELISA method (HIV-1 p24 Antigen ELISA)."}, "[7]": {"tested_on": "mock-infected CD4-positive T lymphocytes (CD4T)", "assay": "Cell viability (dye method) of mock-infected CD4T", "type": "cell-based, human", "conditions": "Example 5, CD4T"}, "[8]": {"conditions": "Example 2: protease inhibitor pretreatment 3 days, then combination 3 days, in the presence of entinostat of 0.5 μM"}, "[9]": {"conditions": "Example 3: simultaneous administration with entinostat, no pretreatment, 3 days from day 12"}},
  "data": [
    {"molecule": "CC(C)(C)NC(=O)[C@@H]1C[C@@H]2CCCC[C@@H]2CN1C[C@@H](O)[C@H](Cc1ccccc1)NC(=O)[C@H](CC(N)=O)NC(=O)c1ccc2ccccc2n1", "note": "[SQV, saquinavir]", "values": [
      {"measurement": "effect on the cell death-inducing effect specific for HIV-1-infected cells due to entinostat", "setting": "[1]", "value": "did not affect"},
      {"measurement": "HIV-1 production", "setting": "HIV-1 strain IIIB [2]; [8]", "value": "concentration-dependently suppressed HIV-1 production"}
    ]},
    {"molecule": "CC(C)CN(C[C@@H](O)[C@H](Cc1ccccc1)NC(=O)O[C@H]1CO[C@H]2OCC[C@H]21)S(=O)(=O)c1ccc(N)cc1", "note": "[darunavir]", "values": [
      {"measurement": "activation of HIV-1 production by entinostat", "setting": "HIV-1 strain IIIB [3]; Example 6: 100 nM, administered simultaneously with entinostat, CD4T", "value": "strongly suppressing"},
      {"measurement": "concentration that strongly suppressed the increase in HIV-1 production due to entinostat", "setting": "HIV-1 strain IIIB [2]; Example 3: simultaneous administration with entinostat", "value": "≥ 100", "unit": "nM"},
      {"measurement": "HIV-1 production", "setting": "HIV-1 strain IIIB [2]; [9]", "value": "suppressing HIV-1 production"}
    ]},
    {"molecule": "Nc1ccccc1NC(=O)c1ccc(CNC(=O)OCc2cccnc2)cc1", "note": "[entinostat]", "values": [
      {"measurement": "increase of cleaved caspase-3 in HIV-1-infected CD4T versus pseudo-infected CD4T", "setting": "Cleaved caspase-3; 24 hours", "value": "more marked"},
      {"measurement": "activated form of caspase-3 (cleaved caspase-3) expression", "setting": "Cleaved caspase-3; 24 hours, pseudo-infected CD4T (Mock) and HIV-1-infected CD4T (HIV)", "value": "increase"},
      {"measurement": "increase in activated form of caspase-3", "setting": "Cleaved caspase-3; 48 hours, pseudo-infected CD4T and HIV-1-infected CD4T", "value": "not observed"},
      {"measurement": "activation of HIV-1 latently infected cells to induce HIV-1 production", "setting": "[4]", "value": "activate HIV-1 latently infected cells"},
      {"measurement": "cell death-inducing effect specific for HIV-1-infected cells", "setting": "[1]", "value": "cell death-inducing effect specific for HIV-1-infected cells"},
      {"measurement": "viability at 0.5 µM", "setting": "[1]; Homo sapiens, PBMC, read-out: cell viability of HIV-1-infected cells relative to cell viability of pseudo-infected (non-infected) cells", "value": "~50", "unit": "%"},
      {"measurement": "cleaved PARP expression", "setting": "Cleaved PARP; entinostat 0.5 μM, 24 hours, pseudo-infected CD4T and HIV-1-infected CD4T", "value": "increase in the cleaved PARP was observed"},
      {"measurement": "expression of PARP (cleaved)", "setting": "Cleaved PARP; entinostat, 48 hours, HIV-1-infected CD4T", "value": "markedly increased"},
      {"measurement": "cell death-inducing effect specific for HIV-1-infected cells in CD4T", "setting": "[5]", "value": "cell death-inducing effect specific for HIV-1-infected cells"},
      {"measurement": "effect of the HDAC inhibitor on HIV-1 production in infected cells", "setting": "HIV-1 strain IIIB [2]; entinostat alone", "value": "activates HIV-1 production"}
    ]},
    {"molecule": "chidamide", "values": [
      {"measurement": "cell death-inducing effect specific for HIV-1-infected cells compared with entinostat", "setting": "[1]; Example 4", "value": "weaker cell death-inducing effect"},
      {"measurement": "cell death-inducing effect specific for HIV-1-infected cells", "setting": "[1]", "value": "cell death-inducing effect specific for HIV-1-infected cells"},
      {"measurement": "toxicity to mock-infected cells compared with entinostat", "setting": "[6]", "value": "less toxic"},
      {"measurement": "cell death-inducing effect against infected cells compared to entinostat", "setting": "[5]; Example 5, CD4T", "value": "weaker cell death-inducing effect"},
      {"measurement": "cell death-inducing effect specific for HIV-1-infected cells in CD4T", "setting": "[5]", "value": "cell death-inducing effect specific for HIV-1-infected cells"},
      {"measurement": "toxicity to mock-infected cells compared to entinostat", "setting": "[7]", "value": "less toxic"}
    ]},
    {"molecule": "C[C@@H]1CCO[C@H]2Cn3cc(C(=O)NCc4ccc(F)cc4F)c(=O)c(O)c3C(=O)N12", "note": "[dolutegravir]", "values": [
      {"measurement": "anti-HIV-1 effect", "setting": "HIV-1 strain IIIB [3]; Example 6, CD4T, in the absence of entinostat", "value": "hardly had an anti-HIV-1 effect"},
      {"measurement": "effect on the cell death-inducing effect specific for HIV-1-infected cells due to entinostat", "setting": "[5]", "value": "did not affect"}
    ]},
    {"molecule": "O=C(CCCCCCC(=O)Nc1ccccc1)NO", "note": "[vorinostat]", "values": [
      {"measurement": "activation of HIV-1 latently infected cells to induce HIV-1 production", "setting": "[4]", "value": "activate HIV-1 latently infected cells"},
      {"measurement": "cell death-inducing effect specific for HIV-1-infected cells in CD4T", "setting": "[5]", "value": "no cell death-inducing effect specific for HIV-1-infected cells"}
    ]},
    {"molecule": "Cc1c(O)cccc1C(=O)N[C@@H](CSc1ccccc1)[C@H](O)CN1C[C@H]2CCCC[C@H]2C[C@H]1C(=O)NC(C)(C)C", "note": "[nelfinavir]", "values": [
      {"measurement": "effect on the cell death-inducing effect specific for HIV-1-infected cells due to entinostat", "setting": "[1]", "value": "did not affect"},
      {"measurement": "HIV-1 production", "setting": "HIV-1 strain IIIB [2]; [8]", "value": "concentration-dependently suppressed HIV-1 production"},
      {"measurement": "HIV-1 production", "setting": "HIV-1 strain IIIB [2]; [9]", "value": "suppressing HIV-1 production"}
    ]},
    {"molecule": "C[C@H](Cn1cnc2c(N)ncnc21)OCP(=O)(O)O", "note": "[tenofovir]", "values": [
      {"measurement": "concentration at which HIV-1 production was still not suppressed", "setting": "HIV-1 strain IIIB [3]; Example 6, CD4T, irrespective of the presence or absence of entinostat", "value": "> 1", "unit": "µM"},
      {"measurement": "effect on the cell death-inducing effect specific for HIV-1-infected cells due to entinostat", "setting": "[5]", "value": "did not affect"}
    ]}
  ]
}
